Tests used:
Assay in all cases: relative viability (nuclei count vs DMSO), 5 days (fraction); higher = more cells survive
HCC-827 = tested on: HCC-827
How it was run: (§1)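 Lung cancer cell lines, seeded in 1536-well plates, were treated the following day by pin tool with a single drug or with five library-drug doses (not always all listed) in √10 steps on top of a fixed anchor-drug dose. Cells were fixed and nuclei stained in one step after 5 days, and nuclei were counted. Relative viability is the nuclei count for treated wells divided by that for vehicle wells, reported as medians of duplicate plates.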

EKVX = tested on: EKVX
How it was run: as §1

NCI-H2405 = tested on: NCI-H2405
How it was run: as §1

NCI-H1355 = tested on: NCI-H1355
How it was run: as §1

NCI-H1792 = tested on: NCI-H1792
How it was run: as §1

NCI-H838 = tested on: NCI-H838
How it was run: as §1

LC-2-ad = tested on: LC-2-ad
How it was run: as §1

HARA = tested on: HARA
How it was run: as §1

NCI-H661 = tested on: NCI-H661
How it was run: as §1

SW 1573 = tested on: SW 1573
How it was run: as §1

COR-L23 = tested on: COR-L23
How it was run: as §1

UMC-11 = tested on: UMC-11
How it was run: as §1

Question: For Nc1cccc2c1CN(C1CCC(=O)NC1=O)C2=O (configuration not stated) [Lenalidomide] + Nc1nc2[nH]cc(CCc3ccc(C(=O)N[C@@H](CCC(=O)O)C(=O)O)cc3)c2c(=O)[nH]1 [Pemetrexed] (partner 0.2 µM), which relative viability (HCC-827; first compound 0.253 µM) is on record?
Answer: 0.276

Question: And the relative viability (HCC-827; first compound 0.8 µM)?
Answer: 0.269

Question: And the relative viability (HCC-827; first compound 2.53 µM)?
Answer: 0.252

Question: What about the relative viability (HCC-827; first compound 8 µM) of the same compound?
Answer: 0.304

Question: And the relative viability (EKVX; first compound 0.253 µM)?
Answer: 0.333

Question: What about the relative viability (EKVX; first compound 0.8 µM) of the same compound?
Answer: 0.33

Question: What about the relative viability (EKVX; first compound 2.53 µM) of the same compound?
Answer: 0.466

Question: And the relative viability (EKVX; first compound 8 µM)?
Answer: 0.396

Question: What about the relative viability (NCI-H2405; first compound 0.253 µM) of the same compound?
Answer: 0.999

Question: And the relative viability (NCI-H2405; first compound 0.8 µM)?
Answer: 0.988

Question: And the relative viability (NCI-H2405; first compound 2.53 µM)?
Answer: 1.08

Question: And the relative viability (NCI-H2405; first compound 8 µM)?
Answer: 0.94

Question: What about the relative viability (NCI-H1355; first compound 0.253 µM) of the same compound?
Answer: 1.08

Question: And the relative viability (NCI-H1355; first compound 0.8 µM)?
Answer: 0.784

Question: And the relative viability (NCI-H1355; first compound 2.53 µM)?
Answer: 1.13

Question: What about the relative viability (NCI-H1355; first compound 8 µM) of the same compound?
Answer: 0.738

Question: And the relative viability (NCI-H1792; first compound 0.253 µM)?
Answer: 1.12

Question: And the relative viability (NCI-H1792; first compound 0.8 µM)?
Answer: 0.629

Question: What about the relative viability (NCI-H1792; first compound 2.53 µM) of the same compound?
Answer: 1.08

Question: And the relative viability (NCI-H1792; first compound 8 µM)?
Answer: 0.336

Question: What about the relative viability (NCI-H838; first compound 0.253 µM) of the same compound?
Answer: 0.247

Question: And the relative viability (NCI-H838; first compound 0.8 µM)?
Answer: 0.265

Question: And the relative viability (NCI-H838; first compound 2.53 µM)?
Answer: 0.241

Question: What about the relative viability (NCI-H838; first compound 8 µM) of the same compound?
Answer: 0.265

Question: And the relative viability (LC-2-ad; first compound 0.253 µM)?
Answer: 0.269

Question: And the relative viability (LC-2-ad; first compound 0.8 µM)?
Answer: 0.258

Question: And the relative viability (LC-2-ad; first compound 2.53 µM)?
Answer: 0.262

Question: What about the relative viability (LC-2-ad; first compound 8 µM) of the same compound?
Answer: 0.269

Question: What about the relative viability (HARA; first compound 0.253 µM) of the same compound?
Answer: 0.258

Question: And the relative viability (HARA; first compound 2.53 µM)?
Answer: 0.249

Question: What about the relative viability (HARA; first compound 8 µM) of the same compound?
Answer: 0.259

Question: And the relative viability (NCI-H661; first compound 0.253 µM)?
Answer: 0.908

Question: And the relative viability (NCI-H661; first compound 0.8 µM)?
Answer: 0.935

Question: What about the relative viability (NCI-H661; first compound 2.53 µM) of the same compound?
Answer: 0.926

Question: And the relative viability (NCI-H661; first compound 8 µM)?
Answer: 0.932

Question: And the relative viability (SW 1573; first compound 0.253 µM)?
Answer: 0.751

Question: What about the relative viability (SW 1573; first compound 0.8 µM) of the same compound?
Answer: 0.856

Question: And the relative viability (SW 1573; first compound 2.53 µM)?
Answer: 0.98

Question: And the relative viability (SW 1573; first compound 8 µM)?
Answer: 0.812

Question: And the relative viability (COR-L23; first compound 0.253 µM)?
Answer: 0.192

Question: And the relative viability (COR-L23; first compound 0.8 µM)?
Answer: 0.191

Question: And the relative viability (COR-L23; first compound 2.53 µM)?
Answer: 0.191

Question: And the relative viability (COR-L23; first compound 8 µM)?
Answer: 0.189

Question: And the relative viability (UMC-11; first compound 0.253 µM)?
Answer: 0.93

Question: What about the relative viability (UMC-11; first compound 0.8 µM) of the same compound?
Answer: 0.72

Question: And the relative viability (UMC-11; first compound 2.53 µM)?
Answer: 0.84

Question: What about the relative viability (UMC-11; first compound 8 µM) of the same compound?
Answer: 0.8
